Laboratory results reported in patent publication US5126057A, “Disinfecting with N,N'-dihaloimidazolidin-4-ones” (Auburn Research Foundation, priority 1991, dated 1992).
Values belong to the molecule of their own block, whether it stands above or below them.

Legend:
bacteria = test: Bactericidal efficacy, summary over all bacteria and conditions; format: cell-based, Staphylococcus aureus and Pseudomonas aeruginosa; conditions: for bactericidal efficiency (in words): Table V conditions
Experimental: (§1) The halogenated imidazolidin-4-one derivatives prepared as in examples 3, 5, and 6 (Compounds 1, 5, and 3, respectively) were tested as bactericides against the microorganisms Staphylococcus aureus (ATCC25923) and Pseudomonas aeruginosa (ATCC 27853) in demand-free water (DFW) as a function of pH and temperature and in a synthetic-demand water (SDW) at pH 9.5 and 4° C. The demand-free and synthetic-demand waters were prepared as described in examples 7 and 12, respectively.
(§2) For the bactericidal efficacy tests 50 milliliters of buffered DFW or SDW were placed in a 125 milliliter flask which was then inoculated with the organism to be tested such that the final density of the organism was about 1×10^6 cfu/ml (colony forming units per milliliter). The inoculated solution was allowed to equilibrate at the test temperature by immersion in a thermostated water bath for 15 minutes with constant stirring. Then an appropriate amount of an aqueous solution containing the test halogenated imidazolidin-4-one compound maintained at the same test temperature was added to the inoculated solution to bring the total concentration of potential positive halogen (Cl^+ or Cl^+ /Br^+) in the mixture to a predetermined level (10 parts per million and 5 parts per million Cl^+ from compounds 1 and 3; the molar equivalent in Cl^+ /Br^+ from Compound 5). 1 milliliter aliquots were removed from the test mixture at various predetermined times, and the active halogen was quenched by 1 milliliter portions of sterile 0.02 Normal sodium thiosulfate. Serial dilutions were made into sterile saline, and three 25 microliter aliquots of each of the resulting dilutions were applied to the dried surface of a Petri dish containing tryptic soy and nutrient agars for plating S. aureus and P. aeruginosa, respectively. After 48 hours at 37° C. the three replicates for each dilution were counted and averaged. This average was used to compute the cfu/ml for that particular aliquot. Inactivation of the organism was considered to be at least 99.9999 percent when no colonies were detected in the thiosulfate quenched aliquots.

[1] = Stability in synthetic halogen demand water (SDW); format: physicochemical; conditions: 4° C.; for stability (in words): heavy halogen demand (SDW), pH 9.5; for remaining at 0.083 h: pH 9.5, 0.083 hrs; for remaining at 0.5 h: pH 9.5, 0.5 hrs; for remaining at 1 h: pH 9.5, 1.0 hrs; for remaining at 2 h: pH 9.5, 2.0 hrs; for remaining at 4 h: pH 9.5, 4.0 hrs; for remaining at 24 h: pH 9.5, 24.0 hrs
Experimental: A synthetic halogen demand water (SDW) was prepared by mixing the following substances with demand-free water (DFW): 375 milligrams per liter of each of the inorganic salts sodium chloride, potassium chloride, calcium chloride, and magnesium chloride; 50 milligrams per liter of Bentonite clay; 30 milligrams per liter of humic acid; 0.01 percent final concentration of heat-treated horse serum; and 5×10^5 cells per milliliter of heat-killed Saccharomyces cerevisiae yeast cells. The SDW solution was buffered with 0.01 Molar borate/sodium hydroxide to a pH of 9.5 and held at 4° C. during the experiments. The conditions of high ionic strength, turbidity, and organic material, and alkaline pH at low temperature, are viewed as a worst-case scenario for disinfection applications and thus should provide the optimum test of stability for the new compounds.
In separate flasks were dissolved compounds 1, 2, 3, and 5 to a starting concentration of 10 milligrams per liter total potential positive chlorine or its molar equivalent (16.25 milligrams per liter) in total potential positive halogen for Compound 5. Aliquots were withdrawn frequently over a period of more than 90 hours, and the percent positive halogen remaining was determined by standard iodometric titration.

[2] = Laboratory stability in halogen demand-free water (DFW), iodometric titration; format: physicochemical; conditions: for remaining at 23.52 h / remaining at 95.76 h / remaining at 168 h / remaining at 336 h / remaining at 504 h / remaining at 672 h / remaining at 840 h / remaining at 1008 h / remaining at 119.28 h: demand-free water
Experimental: The stability of 1,3-dichloro-2,2,5,5-tetramethylimidazolidin-4-one (Compound 1) in halogen demand-free water was determined at 22° C. and pH values of 4.5, 7.0, and 9.5, and the results were compared to those for free chlorine as supplied by calcium hypochlorite. The demand-free water (DFW) was prepared by chlorination of distilled, deionized water buffered to the appropriate pH followed by dechlorination (of the excess free chlorine) by exposure to direct sunlight until no free chlorine remained. This treatment insured that all halogen demand in the water was neutralized. Then Compound 1 and calcium hypochlorite were separately dissolved in identical DFW (buffered to an appropriate pH) solutions to the same final total chlorine concentrations (10 milligrams per liter potential positive chlorine). The solutions in separate flasks, which were stoppered with porous, sterile cotton plugs to allow free exchange with laboratory air, were then held at a constant temperature of 22° C. by means of a controlled water bath for a period of several weeks. Aliquots were withdrawn periodically (at least weekly), and the total positive chlorine remaining was determined in triplicate by standard iodometric titration. […]
The stabilities of 1,3-dibromo-2,2,5,5-tetramethylimidazolidin-4-one (Compound 4) and 1-bromo-3-chloro-2,2,5,5-tetramethylimidazolidin-4-one (Compound 5) in halogen demand-free water (DFW) were determined at 22° C. and pH values of 7.0 and 9.5 using the same procedures as discussed under example 9. Given the instability of Compound 1 at pH 4.5 (example 9), it was deemed unnecessary to test compounds 4 and 5 at that pH. The two compounds were dissolved in DFW buffered to the appropriate pH in separate flasks and held at a temperature of 22° C. by means of a constant temperature bath. The starting concentrations of total potential positive halogen in the two solutions were 22.6 milligrams per liter for Compound 4 and 16.25 milligrams per liter for Compound 5; these concentrations represent the molar equivalents in total potential positive halogen to that used for Compound 1 in example 9. The solutions were analyzed in the manner described in example 9.

[3] = system: Staphylococcus aureus (ATCC25923); test: Bactericidal efficacy, percent inactivation of S. aureus; format: cell-based; conditions: for killing at 5 ppm: DFW; for killing at 10 ppm: SDW
Experimental: as §1, §2

[4] = synthetic halogen demand water, SDW, read-out: Percent Halogen Remaining
[5] = ATCC25923, 5 min, pH 4.5, pH 4.5, 22° C., 5 minutes
[6] = ATCC25923, 5 min, pH 7, pH 7.0, 22° C., 5 minutes
[7] = ATCC25923, 5 min, pH 9.5, pH 9.5, 4° C., 5 minutes
[8] = ATCC25923, 5 min, pH 9.5, pH 9.5, 22° C., 5 minutes
[9] = ATCC25923, 10 min, pH 4.5, pH 4.5, 22° C., 10 minutes
[10] = ATCC25923, 10 min, pH 7, pH 7.0, 22° C., 10 minutes
[11] = ATCC25923, 10 min, pH 9.5, pH 9.5, 4° C., 10 minutes
[12] = ATCC25923, 10 min, pH 9.5, pH 9.5, 22° C., 10 minutes

remaining at 0.083 h [1, 4]: 98.8%
remaining at 0.25 h ([1]; synthetic halogen demand water, SDW, pH 9.5, 0.25 hrs, read-out: Percent Halogen Remaining): 98.8%
remaining at 0.5 h [1, 4]: 93.1%
remaining at 1 h [1, 4]: 92.4%
remaining at 2 h [1, 4]: 92.4%
remaining at 4 h [1, 4]: 88.8%
remaining at 25 h ([1]; synthetic halogen demand water, SDW, pH 9.5, 25.0 hrs, read-out: Percent Halogen Remaining): 71.4%
remaining at 93 h ([1]; synthetic halogen demand water, SDW, pH 9.5, 93.0 hrs, read-out: Percent Halogen Remaining): 60.2%
remaining at 23.52 h ([2]; pH 4.5): 100%
remaining at 95.76 h ([2]; pH 4.5): 88.9%
remaining at 168 h ([2]; pH 4.5): 77.6%
remaining at 336 h ([2]; pH 4.5): 55.5%
remaining at 504 h ([2]; pH 4.5): 40.4%
remaining at 672 h ([2]; pH 4.5): 30.7%
remaining at 840 h ([2]; pH 4.5): 26%
remaining at 1008 h ([2]; pH 4.5): 23.5%
remaining at 168 h ([2]; pH 7): 97.1%
remaining at 336 h ([2]; pH 7): 95%
remaining at 504 h ([2]; pH 7): 93.5%
remaining at 672 h ([2]; pH 7): 90.6%
remaining at 840 h ([2]; pH 7): 86%
remaining at 1008 h ([2]; pH 7): 83.4%
remaining at 23.52 h ([2]; pH 9.5): 96.5%
remaining at 95.76 h ([2]; pH 9.5): 98.9%
remaining at 168 h ([2]; pH 9.5): 95.1%
remaining at 336 h ([2]; pH 9.5): 89.4%
remaining at 504 h ([2]; pH 9.5): 82.6%
remaining at 672 h ([2]; pH 9.5): 72.3%
remaining at 840 h ([2]; pH 9.5): 63.7%
remaining at 1008 h ([2]; pH 9.5): 55.1%
stability (in words) ([2]; pH 4.5): rather unstable in acidic DFW (pH 4.5)
SMILES: CC1(C)C(=O)N(Cl)C(C)(C)N1Cl [Compound 1, 1,3-dichloro-2,2,5,5-tetramethylimidazolidin-4-one]
bactericidal efficiency (in words) (bacteria): reasonably efficient as a bactericide
stability (in words) [1]: much more stable under these conditions than is free chlorine
stability (in words), against Compounds 4 and 5 [2]: considerably more stable in DFW at pH values of 7.0 and 9.5 and 22 °C than are Compounds 4 and 5
stability (in words) ([2]; pH 7): considerably more stable in DFW at pH 7.0 at 22 °C than is free chlorine
stability (in words), against free chlorine ([2]; pH 9.5): more stable than free chlorine in alkaline DFW (pH 9.5)
killing at 5 ppm [3, 5]: 100%
killing at 5 ppm [3, 6]: 89.1%
killing at 5 ppm [3, 7]: 71.3%
killing at 10 ppm [3, 7]: 43.8%
killing at 5 ppm [3, 8]: > 100%
killing at 5 ppm [3, 9]: > 100%
killing at 5 ppm [3, 10]: 99.1%
killing at 5 ppm [3, 11]: 80.9%
killing at 10 ppm [3, 11]: 68.1%
killing at 5 ppm [3, 12]: > 100%

remaining at 0.083 h [1, 4]: 99.2%
remaining at 0.5 h [1, 4]: 96.6%
remaining at 2 h [1, 4]: 95.4%
remaining at 8 h ([1]; synthetic halogen demand water, SDW, pH 9.5, 8.0 hrs, read-out: Percent Halogen Remaining): 94.1%
remaining at 24 h [1, 4]: 94.9%
remaining at 48 h ([1]; synthetic halogen demand water, SDW, pH 9.5, 48.0 hrs, read-out: Percent Halogen Remaining): 94.5%
remaining at 72 h ([1]; synthetic halogen demand water, SDW, pH 9.5, 72.0 hrs, read-out: Percent Halogen Remaining): 94.1%
remaining at 122 h ([1]; synthetic halogen demand water, SDW, pH 9.5, 122.0 hrs, read-out: Percent Halogen Remaining): 94.1%
SMILES: CC1(C)NC(=O)C(C)(C)N1Cl [Compound 3, 1-chloro-2,2,5,5-tetramethylimidazolidin-4-one]
bactericidal efficiency (in words) (bacteria): least efficient
inactivation (bacteria; all conditions tested, given sufficient contact time): greater than 99.9999%
stability (in words) [1]: extremely stable in the presence of heavy demand
stability (in words) ([2]; pH 7): more stable than Compound 1 and considerably more stable than free chlorine (Compound 2) in DFW at pH 7.0 and 22 °C
killing at 5 ppm [3, 5]: 87.4%
killing at 5 ppm [3, 6]: 0%
killing at 10 ppm [3, 7]: 2.86%
killing at 5 ppm [3, 8]: 32.7%
killing at 5 ppm [3, 9]: 96.3%
killing at 5 ppm [3, 10]: 4.42%
killing at 10 ppm [3, 11]: 0%
killing at 5 ppm [3, 12]: 50.2%

remaining at 0.008 h ([1]; synthetic halogen demand water, SDW, pH 9.5, 0.008 hrs, read-out: Percent Halogen Remaining): 64%
remaining at 0.167 h ([1]; synthetic halogen demand water, SDW, pH 9.5, 0.167 hrs, read-out: Percent Halogen Remaining): 49.9%
remaining at 0.5 h [1, 4]: 47.1%
remaining at 1 h [1, 4]: 47.4%
remaining at 4 h [1, 4]: 41.9%
remaining at 24 h [1, 4]: 38.2%
remaining at 94 h ([1]; synthetic halogen demand water, SDW, pH 9.5, 94.0 hrs, read-out: Percent Halogen Remaining): 31.8%
remaining at 23.52 h ([2]; pH 7): 97.3%
remaining at 119.28 h ([2]; pH 7): 95.4%
remaining at 168 h ([2]; pH 7): 91.7%
remaining at 336 h ([2]; pH 7): 88.2%
remaining at 504 h ([2]; pH 7): 75%
remaining at 672 h ([2]; pH 7): 45.9%
remaining at 840 h ([2]; pH 7): 17.5%
remaining at 1008 h ([2]; pH 7): 7.6%
remaining at 23.52 h ([2]; pH 9.5): 96.3%
remaining at 119.28 h ([2]; pH 9.5): 89.5%
remaining at 168 h ([2]; pH 9.5): 88.3%
remaining at 336 h ([2]; pH 9.5): 86.3%
remaining at 504 h ([2]; pH 9.5): 70.8%
remaining at 672 h ([2]; pH 9.5): 60.8%
remaining at 840 h ([2]; pH 9.5): 46.8%
remaining at 1008 h ([2]; pH 9.5): 38.4%
SMILES: CC1(C)C(=O)N(Cl)C(C)(C)N1Br [Compound 5, 1-bromo-3-chloro-2,2,5,5-tetramethylimidazolidin-4-one]
reduction of bacteria (bacteria; all conditions, less than or equal 5 minutes of contact time, even in SDW): greater than 99.9999%
stability (in words) [1]: comparable in stability to free chlorine under these conditions
stability (in words), against free chlorine ([2]; pH 9.5): comparable in stability to free chlorine (see data in example 9) at pH 9.5 only
killing at 5 ppm [3, 5]: > 100%
killing at 5 ppm [3, 6]: > 100%
killing at 5 ppm [3, 7]: > 100%
killing at 10 ppm [3, 7]: > 100%
killing at 5 ppm [3, 8]: > 100%
killing at 5 ppm [3, 9]: > 100%
killing at 5 ppm [3, 10]: > 100%
killing at 5 ppm [3, 11]: > 100%
killing at 10 ppm [3, 11]: > 100%
killing at 5 ppm [3, 12]: > 100%
